Measurements: the supplement of paper PMC10307832

Legend:
Experiment in all cases: relative viability (nuclei count vs DMSO), 5 days (fraction); higher = more cells survive
201T = test system: 201T
Summary of the method: (§1)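 Lung cancer cell lines in 1536-well plates were dosed by pin tool the day after seeding, either with one drug alone or with a fixed anchor-drug dose plus five library-drug doses (not always all listed) in √10 steps. After 5 days, cells were fixed and their nuclei stained in one step (final 0.05% Triton X-100, 1% formaldehyde, 1 ug/ml Hoechst), then counted on 4× images. Relative viability is the nuclei count in treated wells divided by that in vehicle wells. Values are medians of duplicate plates.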

EMC-BAC-2 = test system: EMC-BAC-2
Summary of the method: as §1

EPLC-272H = test system: EPLC-272H
Summary of the method: as §1

HCC-78 = test system: HCC-78
Summary of the method: as §1

LOU-NH91 = test system: LOU-NH91
Summary of the method: as §1

NCI-H1395 = test system: NCI-H1395
Summary of the method: as §1

NCI-H1437 = test system: NCI-H1437
Summary of the method: as §1

NCI-H1651 = test system: NCI-H1651
Summary of the method: as §1

NCI-H1734 = test system: NCI-H1734
Summary of the method: as §1

NCI-H1792 = test system: NCI-H1792
Summary of the method: as §1

NCI-H1793 = test system: NCI-H1793
Summary of the method: as §1

NCI-H1915 = test system: NCI-H1915
Summary of the method: as §1

NCI-H1975 = test system: NCI-H1975
Summary of the method: as §1

NCI-H2023 = test system: NCI-H2023
Summary of the method: as §1

NCI-H23 = test system: NCI-H23
Summary of the method: as §1

NCI-H2405 = test system: NCI-H2405
Summary of the method: as §1

NCI-H647 = test system: NCI-H647
Summary of the method: as §1

RERF-LC-KJ = test system: RERF-LC-KJ
Summary of the method: as §1

SK-LU-1 = test system: SK-LU-1
Summary of the method: as §1

UMC-11 = test system: UMC-11
Summary of the method: as §1

O=c1[nH]c2ccccc2n1C1CCN(CCCC(c2ccc(F)cc2)c2ccc(F)cc2)CC1 [Pimozide] + CC1(C)CCC(c2ccc(Cl)cc2)=C(CN2CCN(c3ccc(C(=O)NS(=O)(=O)c4ccc(N[C@H](CCN5CCOCC5)CSc5ccccc5)c(S(=O)(=O)C(F)(F)F)c4)cc3)CC2)C1 [Navitoclax] (partner 0.5 µM)
relative viability (201T; first compound 0.08 µM): 1.19 | relative viability (201T; first compound 0.253 µM): 1.25 | relative viability (201T; first compound 0.8 µM): 1.19 | relative viability (201T; first compound 2.53 µM): 1.18 | relative viability (201T; first compound 8 µM): 1.15 | relative viability (EMC-BAC-2; first compound 0.08 µM): 1.09 | relative viability (EMC-BAC-2; first compound 0.253 µM): 1.11 | relative viability (EMC-BAC-2; first compound 0.8 µM): 1.05 | relative viability (EMC-BAC-2; first compound 2.53 µM): 1.06 | relative viability (EMC-BAC-2; first compound 8 µM): 1.07 | relative viability (EPLC-272H; first compound 0.08 µM): 0.979 | relative viability (EPLC-272H; first compound 0.253 µM): 1.16 | relative viability (EPLC-272H; first compound 0.8 µM): 1.13 | relative viability (EPLC-272H; first compound 2.53 µM): 1.03 | relative viability (EPLC-272H; first compound 8 µM): 0.967 | relative viability (HCC-78; first compound 0.08 µM): 0.764 | relative viability (HCC-78; first compound 0.253 µM): 0.717 | relative viability (HCC-78; first compound 0.8 µM): 0.893 | relative viability (HCC-78; first compound 2.53 µM): 0.71 | relative viability (HCC-78; first compound 8 µM): 0.691 | relative viability (LOU-NH91; first compound 0.08 µM): 0.309 | relative viability (LOU-NH91; first compound 0.253 µM): 0.734 | relative viability (LOU-NH91; first compound 0.8 µM): 0.736 | relative viability (LOU-NH91; first compound 2.53 µM): 0.788 | relative viability (LOU-NH91; first compound 8 µM): 0.739 | relative viability (NCI-H1395; first compound 0.08 µM): 1.08 | relative viability (NCI-H1395; first compound 0.253 µM): 1.15 | relative viability (NCI-H1395; first compound 0.8 µM): 1.34 | relative viability (NCI-H1395; first compound 2.53 µM): 1.1 | relative viability (NCI-H1395; first compound 8 µM): 1.3 | relative viability (NCI-H1437; first compound 0.08 µM): 1.07 | relative viability (NCI-H1437; first compound 0.253 µM): 1.06 | relative viability (NCI-H1437; first compound 0.8 µM): 1.06 | relative viability (NCI-H1437; first compound 2.53 µM): 0.993 | relative viability (NCI-H1437; first compound 8 µM): 0.81 | relative viability (NCI-H1651; first compound 0.08 µM): 0.953 | relative viability (NCI-H1651; first compound 0.253 µM): 1.06 | relative viability (NCI-H1651; first compound 0.8 µM): 1.07 | relative viability (NCI-H1651; first compound 2.53 µM): 1.11 | relative viability (NCI-H1651; first compound 8 µM): 0.992 | relative viability (NCI-H1734; first compound 0.08 µM): 0.894 | relative viability (NCI-H1734; first compound 0.253 µM): 0.806 | relative viability (NCI-H1734; first compound 0.8 µM): 0.764 | relative viability (NCI-H1734; first compound 2.53 µM): 0.83 | relative viability (NCI-H1734; first compound 8 µM): 0.836 | relative viability (NCI-H1792; first compound 0.08 µM): 0.647 | relative viability (NCI-H1792; first compound 0.253 µM): 0.629 | relative viability (NCI-H1792; first compound 0.8 µM): 0.619 | relative viability (NCI-H1792; first compound 2.53 µM): 0.599 | relative viability (NCI-H1792; first compound 8 µM): 0.649 | relative viability (NCI-H1793; first compound 0.08 µM): 0.532 | relative viability (NCI-H1793; first compound 0.253 µM): 0.485 | relative viability (NCI-H1793; first compound 0.8 µM): 0.389 | relative viability (NCI-H1793; first compound 2.53 µM): 0.48 | relative viability (NCI-H1793; first compound 8 µM): 0.494 | relative viability (NCI-H1915; first compound 0.08 µM): 0.784 | relative viability (NCI-H1915; first compound 0.253 µM): 0.705 | relative viability (NCI-H1915; first compound 0.8 µM): 0.777 | relative viability (NCI-H1915; first compound 2.53 µM): 0.777 | relative viability (NCI-H1915; first compound 8 µM): 0.786 | relative viability (NCI-H1975; first compound 0.08 µM): 1.22 | relative viability (NCI-H1975; first compound 0.253 µM): 1.06 | relative viability (NCI-H1975; first compound 0.8 µM): 1.08 | relative viability (NCI-H1975; first compound 2.53 µM): 1.16 | relative viability (NCI-H1975; first compound 8 µM): 0.992 | relative viability (NCI-H2023; first compound 0.08 µM): 1.03 | relative viability (NCI-H2023; first compound 0.253 µM): 1.03 | relative viability (NCI-H2023; first compound 0.8 µM): 0.988 | relative viability (NCI-H2023; first compound 2.53 µM): 0.957 | relative viability (NCI-H2023; first compound 8 µM): 0.832 | relative viability (NCI-H23; first compound 0.08 µM): 0.882 | relative viability (NCI-H23; first compound 0.253 µM): 0.807 | relative viability (NCI-H23; first compound 0.8 µM): 0.732 | relative viability (NCI-H23; first compound 2.53 µM): 0.844 | relative viability (NCI-H23; first compound 8 µM): 0.801 | relative viability (NCI-H2405; first compound 0.08 µM): 0.795 | relative viability (NCI-H2405; first compound 0.253 µM): 0.716 | relative viability (NCI-H2405; first compound 0.8 µM): 0.89 | relative viability (NCI-H2405; first compound 2.53 µM): 0.801 | relative viability (NCI-H2405; first compound 8 µM): 0.637 | relative viability (NCI-H647; first compound 0.08 µM): 1.17 | relative viability (NCI-H647; first compound 0.253 µM): 1.14 | relative viability (NCI-H647; first compound 0.8 µM): 0.91 | relative viability (NCI-H647; first compound 2.53 µM): 0.954 | relative viability (NCI-H647; first compound 8 µM): 0.837 | relative viability (RERF-LC-KJ; first compound 0.08 µM): 0.913 | relative viability (RERF-LC-KJ; first compound 0.253 µM): 0.855 | relative viability (RERF-LC-KJ; first compound 0.8 µM): 0.885 | relative viability (RERF-LC-KJ; first compound 2.53 µM): 1.04 | relative viability (RERF-LC-KJ; first compound 8 µM): 0.92 | relative viability (SK-LU-1; first compound 0.08 µM): 1.09 | relative viability (SK-LU-1; first compound 0.253 µM): 0.815 | relative viability (SK-LU-1; first compound 0.8 µM): 0.804 | relative viability (SK-LU-1; first compound 2.53 µM): 0.76 | relative viability (SK-LU-1; first compound 8 µM): 0.809 | relative viability (UMC-11; first compound 0.08 µM): 0.33 | relative viability (UMC-11; first compound 0.253 µM): 0.318 | relative viability (UMC-11; first compound 0.8 µM): 0.293 | relative viability (UMC-11; first compound 2.53 µM): 0.286 | relative viability (UMC-11; first compound 8 µM): 0.239
